Assays:
[1] = target: T1, HminK (Homo sapiens, UniProt P15382, S38G); assay: Inhibition of growth in agar, HminK strain; format: cell-based; design: key: + indicates compound produced a zone on inhibition; conditions: cultures grown in inducing medium (2% galactose) embedded in agar; scored after 48-hour incubation at 30° C.
T1 construct: mRNA in Xenopus oocytes (A3)
Method: (§1) Cultures of strains containing the pGAL::HminK plasmid or the pGAL::TRK1 plasmid were grown in inducing media (2% galactose) at 30° C. with vigorous aeration. Inhibitors were added to cultures over a range of concentrations. Samples were removed at various intervals and the optical density at 600 nm was determined. Growth measurements were normalized to values obtained for growth in the absence of drug and are plotted as Relative Growth versus concentration (FIG. 6). Similar cultures grown in inducing medium were embedded in agar and assessed for growth in presence of the compounds listed in Table 1. Plates were scored after a 48-hour incubation at 30° C.; "+" denotes growth inhibition.

[2] = target: T1, HminK; assay: Challenge of the pGAL::HminK-transformed double mutant on agar plates at 100 mM and 0.1 mM KCl; format: cell-based; conditions: clofilium 100 μM; 100 mM and 0.1 mM potassium chloride
Method: (§2) In another experiment, the double mutant was transformed with pGAL vector including either TRK1 or HminK as described above. The transformed strains were then separately challenged with clofilium (100 μM) and dofetilide […] at 100 mM and 0.1 mM of potassium chloride.
(§3) Cultures of K^+ transporter mutant strains containing either pYES2 vector, pGAL::TRK1 or pGAL::HminK plasmids were grown in inducing media (2% galactose) at 30° C. with vigorous aeration. A. Serial dilutions of each culture were spotted onto agar plates containing either 100 mM or 0.1 mM. KCl. B. Serial dilutions of strains containing pGAL::TRK1 or pGAL::HminK plasmids were spotted onto agar plates containing 100 μM clofilium or 1 μM dofetilide at both KCl concentrations. All plates were incubated at 30° C. and scored after 2 days.

[3] = test system: IKs; conditions: slow component of the delayed rectifier; literature; cited from earlier work
[4] = target: T2, TRK1 (Saccharomyces cerevisiae, UniProt P12685); assay: Challenge of the pGAL::TRK1-transformed double mutant on agar plates at 100 mM and 0.1 mM KCl; format: cell-based; conditions: clofilium 100 μM; 100 mM and 0.1 mM potassium chloride
T2 sequence (P12685 1-1235): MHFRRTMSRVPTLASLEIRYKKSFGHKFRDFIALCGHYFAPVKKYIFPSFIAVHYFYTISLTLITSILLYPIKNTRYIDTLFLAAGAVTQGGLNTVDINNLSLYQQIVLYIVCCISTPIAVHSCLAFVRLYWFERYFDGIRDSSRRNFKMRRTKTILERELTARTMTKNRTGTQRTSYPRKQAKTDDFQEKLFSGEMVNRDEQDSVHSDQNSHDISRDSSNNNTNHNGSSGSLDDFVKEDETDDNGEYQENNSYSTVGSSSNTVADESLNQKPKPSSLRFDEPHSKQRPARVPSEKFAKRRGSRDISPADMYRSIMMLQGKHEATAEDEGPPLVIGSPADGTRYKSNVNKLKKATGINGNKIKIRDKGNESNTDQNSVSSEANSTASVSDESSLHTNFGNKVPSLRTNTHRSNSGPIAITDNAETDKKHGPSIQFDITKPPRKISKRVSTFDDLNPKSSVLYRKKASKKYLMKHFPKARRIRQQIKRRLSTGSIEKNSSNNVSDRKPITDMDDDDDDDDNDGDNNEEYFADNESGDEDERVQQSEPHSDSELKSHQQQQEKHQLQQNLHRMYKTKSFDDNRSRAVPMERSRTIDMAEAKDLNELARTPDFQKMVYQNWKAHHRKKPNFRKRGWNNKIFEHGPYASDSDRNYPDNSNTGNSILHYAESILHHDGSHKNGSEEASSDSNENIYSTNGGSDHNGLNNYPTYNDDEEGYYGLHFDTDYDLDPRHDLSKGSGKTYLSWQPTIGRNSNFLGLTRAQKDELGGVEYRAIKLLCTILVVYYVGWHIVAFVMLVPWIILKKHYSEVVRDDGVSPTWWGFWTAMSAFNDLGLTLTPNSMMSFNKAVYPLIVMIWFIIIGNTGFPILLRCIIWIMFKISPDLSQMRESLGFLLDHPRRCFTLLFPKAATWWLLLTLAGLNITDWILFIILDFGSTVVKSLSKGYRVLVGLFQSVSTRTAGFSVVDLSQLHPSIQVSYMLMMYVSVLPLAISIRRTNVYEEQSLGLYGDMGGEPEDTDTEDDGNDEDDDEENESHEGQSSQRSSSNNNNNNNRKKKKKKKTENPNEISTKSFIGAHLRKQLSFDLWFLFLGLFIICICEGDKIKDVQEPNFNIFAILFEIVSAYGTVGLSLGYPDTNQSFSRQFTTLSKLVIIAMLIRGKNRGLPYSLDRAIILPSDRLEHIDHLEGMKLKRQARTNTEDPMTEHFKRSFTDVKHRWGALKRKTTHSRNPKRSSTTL
Method: as §2, §3

[5] = target: T1, HminK; assay: Potassium ion currents of HminK mRNA transcripts expressed in Xenopus oocytes; format: cell-based; conditions: Xenopus oocytes expressing the HminK transcripts; clofilium 50 μM
Method: For further verification, mRNA transcripts were expressed in Xenopus oocytes. The expression products caused potassium ion currents that are blocked by clofilium (50 μM) and kinetically indistinguishable from HminK currents reported in the literature. […] Ben Efraim et al., Biochemistry 32: 2371-2377 (1993).

[6] = test system: minK; conditions: literature and personal communication; cited from earlier work
[7] = test system: IKr; conditions: rapid, rectifying component of the delayed rectifier; literature; cited from earlier work
[8] = target: T2, TRK1; assay: Inhibition of growth in agar, TRK1 strain; format: cell-based; design: key: + indicates compound produced a zone on inhibition; conditions: cultures grown in inducing medium (2% galactose) embedded in agar; scored after 48-hour incubation at 30° C.
Method: as §1

SMILES	Inhibition in agar HminK strain [1]	Block of potassium uptake in the HminK strain [2]	Block of IKs [3]	Block of potassium uptake in the TRK1 strain [4]	Block of potassium ion currents [5]	Blockage of minK expressed in Xenopus oocytes [6]	Block of IKr [7]	Inhibition in agar TRK1 strain [8]
CC[N+](CC)(CC)CC [TEA Cl]	+	–	–	–	–	–	–	–
CCCCCCC[N+](CC)(CC)CCCCc1ccc(Cl)cc1 [clofilium]	+	blocked potassium uptake in the HminK strain	blocked	not in the TRK1 strain	blocked	blockage	blocked	–
CC(C)NCC(O)c1ccc(NS(C)(=O)=O)cc1 (stereo not drawn) [d-sotalol]	–	–	not	–	–	–	blocked	–
CN(CCOc1ccc(NS(C)(=O)=O)cc1)CCc1ccc(NS(C)(=O)=O)cc1 [dofetilide]	–	–	not	–	–	–	blocked	–
C=C[C@H]1C[N@@]2CC[C@H]1C[C@@H]2[C@@H](O)c1ccnc2ccc(OC)cc12 [quinidine]	+	–	–	–	–	–	–	+
